ChEMBL document CHEMBL1201862, “PubChem BioAssay data set” (2004)
Activity calls are given as the source filed them.

Legend:
[1] = off-target signal loss in HeLa-CEM21 co-culture – HeLa F-luc CTL cells, cherry-picked, counter-screen for HIV-1 Env fusion inhibitor project, dose response (AID 652040); assay type: functional, cell-based;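 further: potency for signal decrease marking cytotoxic or nonspecific inhibition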
[2] = HEK293T cytotoxicity, dose response, cytotoxicity control for miR-122 modulator project, cell-based, activator set, cherry-pick (AID 720690); assay type: functional;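 further: HEK293T human cells scored for general mammalian cytotoxicity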
[3] = inhibitors of HIV Env-driven cell fusion, dose response, cherry-pick (AID 652057); assay type: functional, cell-based
[4] = molecular target: T1, Apoptotic protease-activating factor 1 (Homo sapiens, UniProt O14727); assay type: functional
T1 sequence (O14727 whole entry): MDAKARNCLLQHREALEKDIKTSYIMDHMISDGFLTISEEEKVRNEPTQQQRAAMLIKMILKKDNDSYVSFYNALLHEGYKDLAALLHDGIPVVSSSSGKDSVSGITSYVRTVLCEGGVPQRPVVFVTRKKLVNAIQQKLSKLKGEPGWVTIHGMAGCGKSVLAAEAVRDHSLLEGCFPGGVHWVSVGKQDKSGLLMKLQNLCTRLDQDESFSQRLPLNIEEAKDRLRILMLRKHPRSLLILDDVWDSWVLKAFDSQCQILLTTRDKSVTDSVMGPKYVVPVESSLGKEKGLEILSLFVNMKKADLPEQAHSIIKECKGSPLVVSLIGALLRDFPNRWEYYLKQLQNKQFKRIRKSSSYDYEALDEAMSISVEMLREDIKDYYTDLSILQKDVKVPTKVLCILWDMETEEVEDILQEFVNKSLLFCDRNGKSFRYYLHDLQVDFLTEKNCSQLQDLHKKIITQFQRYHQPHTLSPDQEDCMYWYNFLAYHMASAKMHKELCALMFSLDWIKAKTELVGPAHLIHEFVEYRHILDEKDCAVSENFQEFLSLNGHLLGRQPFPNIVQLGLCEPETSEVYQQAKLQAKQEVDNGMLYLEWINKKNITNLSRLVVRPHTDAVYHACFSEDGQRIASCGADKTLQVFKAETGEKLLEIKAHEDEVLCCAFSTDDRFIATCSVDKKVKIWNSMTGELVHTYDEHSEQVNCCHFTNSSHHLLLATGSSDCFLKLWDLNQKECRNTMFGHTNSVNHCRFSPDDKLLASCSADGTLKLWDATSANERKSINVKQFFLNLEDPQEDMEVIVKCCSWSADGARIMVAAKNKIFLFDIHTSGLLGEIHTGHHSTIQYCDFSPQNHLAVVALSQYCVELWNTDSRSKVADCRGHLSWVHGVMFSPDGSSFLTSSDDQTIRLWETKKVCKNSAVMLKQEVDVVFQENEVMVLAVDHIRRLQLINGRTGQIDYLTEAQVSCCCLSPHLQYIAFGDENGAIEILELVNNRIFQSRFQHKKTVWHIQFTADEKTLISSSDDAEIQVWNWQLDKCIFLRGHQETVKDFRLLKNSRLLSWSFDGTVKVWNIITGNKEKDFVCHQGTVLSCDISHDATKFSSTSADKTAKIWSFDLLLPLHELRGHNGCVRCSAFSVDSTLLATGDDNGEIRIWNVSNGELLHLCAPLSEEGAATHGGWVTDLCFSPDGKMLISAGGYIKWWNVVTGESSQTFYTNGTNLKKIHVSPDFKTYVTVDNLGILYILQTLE

[5] = CEM21 lymphoblast cell cytotoxicity, dose response, cytotoxicity control for viral fusion inhibitor project, CellTiter-Glo luminescence, cherry-picked (AID 652042); assay type: functional, cell-based;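 further: potency for signal decrease meaning cytotoxicity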
[6] = system: HEK293; assay: HEK cell cytotoxicity by LDH release, dose response, cytotoxicity control for IDE activator project, fluorescence, HEK cells (AID 588440); assay type: functional, cell-based; details: Homo sapiens;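 further: cytotoxicity by LDH release measuring loss of membrane integrity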
[7] = molecular target: T2, Ubiquitin-conjugating enzyme E2 N (Homo sapiens, UniProt P61088); assay type: functional;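 further: Dose-response confirmation in a TR-FRET assay detecting UBC13-driven polyubiquitin chain formation, inhibition measured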
T2 sequence (P61088 whole entry): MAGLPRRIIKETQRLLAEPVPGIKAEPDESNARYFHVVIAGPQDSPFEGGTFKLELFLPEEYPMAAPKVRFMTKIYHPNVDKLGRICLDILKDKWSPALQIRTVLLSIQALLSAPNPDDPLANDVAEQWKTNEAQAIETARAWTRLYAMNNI

[8] = ZM109 Env clade C HIV-1 fusion inhibitors, dose response, HeLa effector, CEM target cells, luciferase, cherry-pick (AID 652058); assay type: functional, cell-based
[9] = miR-122 activators in hepatoma reporter cells, dose response, cell-based, Huh7 psiCHECK-miR122, Renilla luciferase, cherry-picked (AID 651956); assay type: functional;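 further: huh7 hepatoma cells stably carrying a psiCHECK-2 miR-122 sensor plasmid; renilla luciferase signal reporting endogenous miR-122 activity after 48 h compound exposure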
[10] = molecular target: T3, Insulin-degrading enzyme (Homo sapiens, UniProt P14735); assay: activators of recombinant IDE enzyme, dose response, counter-screen for IDE activator project, biochemical, fluorescence polarization (AID 588681)
T3 sequence (P14735 whole entry): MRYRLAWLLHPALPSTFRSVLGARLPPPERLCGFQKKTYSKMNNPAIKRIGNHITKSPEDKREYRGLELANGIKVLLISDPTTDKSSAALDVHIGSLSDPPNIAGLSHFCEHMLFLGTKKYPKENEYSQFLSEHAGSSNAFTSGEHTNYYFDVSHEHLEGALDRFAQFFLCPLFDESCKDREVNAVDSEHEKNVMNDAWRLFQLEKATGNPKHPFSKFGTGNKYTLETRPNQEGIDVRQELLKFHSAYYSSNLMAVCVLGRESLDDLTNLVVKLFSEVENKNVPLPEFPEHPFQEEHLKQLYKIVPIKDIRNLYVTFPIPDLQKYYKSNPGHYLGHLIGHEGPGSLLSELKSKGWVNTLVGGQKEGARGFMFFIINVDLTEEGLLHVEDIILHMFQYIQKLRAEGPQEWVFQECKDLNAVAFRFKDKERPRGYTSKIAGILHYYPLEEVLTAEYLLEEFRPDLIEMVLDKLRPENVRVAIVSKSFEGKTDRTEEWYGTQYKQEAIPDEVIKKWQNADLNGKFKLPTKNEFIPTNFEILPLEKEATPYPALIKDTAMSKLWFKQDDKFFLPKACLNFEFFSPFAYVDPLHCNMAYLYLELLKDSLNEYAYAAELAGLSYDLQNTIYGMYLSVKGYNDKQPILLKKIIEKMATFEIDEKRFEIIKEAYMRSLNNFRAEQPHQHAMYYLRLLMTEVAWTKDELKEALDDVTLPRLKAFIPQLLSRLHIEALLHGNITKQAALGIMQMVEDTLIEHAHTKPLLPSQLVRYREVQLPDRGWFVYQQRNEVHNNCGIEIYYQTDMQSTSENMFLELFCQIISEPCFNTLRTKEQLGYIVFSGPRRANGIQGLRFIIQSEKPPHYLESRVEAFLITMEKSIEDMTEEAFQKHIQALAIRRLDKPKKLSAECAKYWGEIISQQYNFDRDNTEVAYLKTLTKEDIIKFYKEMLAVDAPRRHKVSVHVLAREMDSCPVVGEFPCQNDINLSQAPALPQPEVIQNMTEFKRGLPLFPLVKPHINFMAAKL

[11] = molecular target: T3, Insulin-degrading enzyme; assay: activators of endogenous IDE in HEK cells, dose response, cell-based, fluorescence polarization (AID 588439); assay type: functional
[12] = system: HEK293; assay: optical interference in Abeta FP readout, dose response, artefact control for IDE activator project, biochemical, fluorescence polarization (AID 588442); assay type: functional, cell-based; details: Homo sapiens
[13] = inhibitors of clade B AD8 Env fusion, dose response, cell-based, cherry-pick (AID 652062); assay type: functional;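 further: luciferase signal from cell-cell fusion driven by HIV-1 clade B AD8 Env; potency is for inhibitors of fusion seen as a drop in luminescence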
[14] = HEK293T cytotoxicity, dose response, cytotoxicity control for miR-122 modulator project, cell-based, inhibitor set, cherry-pick, set 2 (AID 720697); assay type: functional
[15] = system: BJ; assay: cytotoxicity toward BJ-TERT fibroblasts, dose response, cell-based, RAS-independent, luminescence (AID 1933); assay type: functional; details: Homo sapiens
[16] = Luminescence Cell-Based Dose Response HTS to Identify Inhibitors of 5'UTR Stem-Loop Driven Prion Protein mRNA Translation in H4 Neuroglioblastoma Cells. [Related pubchem assays: 1827 (Project Summary), 1813 (Primary HTS)]; assay type: functional
[17] = NIH-3T3 fibroblast cytotoxicity, dose response, cytotoxicity control, cell-based, fluorescence, Alamar Blue, secondary assay (AID 2327); assay type: functional;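 further: NIH-3T3 mouse fibroblasts cultured with fluconazole at 8 µg/mL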
[18] = inhibitors of SNCA 5'UTR-driven reporter translation, confirmation, H4 neuroglioma cells, luminescence (AID 1988); assay type: functional, cell-based
[19] = cells; assay type: functional, cell-based
[20] = human group III sPLA2 inhibitors, dose response, biochemical, QFRET, IC50 (AID 743457);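 further: green fluorescence rise as the enzyme cleaves BODIPY PC-A2 in liposomes; potency for inhibition of the enzyme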
[21] = molecular target: T4, Aminopeptidase N (Plasmodium falciparum FcB1/Columbia, UniProt O96935); assay: P. falciparum M1AAP inhibitors, biochemical, fluorogenic H-Leu-NHMec substrate, 1536-well (AID 1445); parameters: species or system Plasmodium falciparum 3D7, 3D7
T4 sequence (O96935 whole entry): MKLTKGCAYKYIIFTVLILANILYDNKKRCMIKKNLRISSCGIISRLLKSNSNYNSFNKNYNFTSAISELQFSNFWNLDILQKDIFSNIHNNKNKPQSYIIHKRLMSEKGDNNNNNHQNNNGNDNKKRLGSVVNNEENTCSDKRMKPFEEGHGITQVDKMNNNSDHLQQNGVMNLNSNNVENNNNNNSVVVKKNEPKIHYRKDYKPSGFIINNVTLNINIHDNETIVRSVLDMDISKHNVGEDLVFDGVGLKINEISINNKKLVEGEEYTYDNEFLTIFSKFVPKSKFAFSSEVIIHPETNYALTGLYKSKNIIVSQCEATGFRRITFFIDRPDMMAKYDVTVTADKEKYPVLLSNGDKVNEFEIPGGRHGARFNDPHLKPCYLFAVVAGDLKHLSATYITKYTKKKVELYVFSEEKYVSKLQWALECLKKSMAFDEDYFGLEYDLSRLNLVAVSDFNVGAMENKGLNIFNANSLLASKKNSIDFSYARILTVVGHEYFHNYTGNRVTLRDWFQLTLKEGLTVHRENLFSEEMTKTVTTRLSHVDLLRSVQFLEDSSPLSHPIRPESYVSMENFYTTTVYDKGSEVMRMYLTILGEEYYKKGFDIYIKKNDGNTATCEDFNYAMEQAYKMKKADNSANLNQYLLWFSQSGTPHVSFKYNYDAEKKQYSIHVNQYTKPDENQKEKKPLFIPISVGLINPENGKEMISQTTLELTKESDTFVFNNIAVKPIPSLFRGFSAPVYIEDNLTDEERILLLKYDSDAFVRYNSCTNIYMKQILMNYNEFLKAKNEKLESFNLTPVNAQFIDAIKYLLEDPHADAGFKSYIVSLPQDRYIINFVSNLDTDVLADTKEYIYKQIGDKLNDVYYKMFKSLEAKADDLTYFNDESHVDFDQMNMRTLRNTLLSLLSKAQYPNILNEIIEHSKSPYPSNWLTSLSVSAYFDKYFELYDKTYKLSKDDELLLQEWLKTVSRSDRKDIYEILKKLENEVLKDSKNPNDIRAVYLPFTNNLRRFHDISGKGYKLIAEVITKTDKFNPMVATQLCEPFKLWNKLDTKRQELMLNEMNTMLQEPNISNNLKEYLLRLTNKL

[22] = cells; assay type: functional, cell-based; remark: listed apart in the source
[23] = cytotoxicity toward DRD oncogenic fibroblasts, dose response, cell-based, non-viral oncogenic, luminescence (AID 1934); assay type: functional; details: Homo sapiens
[24] = system: BJ; assay: cells; assay type: functional, cell-based; details: Homo sapiens
[25] = system: Streptococcus sp. 'group A'; assay: growth inhibition of control SK(-) GAS strain, dose response, counter-screen for streptokinase expression inhibitor project, luminescence, kanamycin, BacTiterGlo, confirmation (AID 1900); assay type: functional, organism-based
[26] = inhibitors of firefly luciferase expression or activity, dose response, H4 neuroglioma cells, luminescence (AID 1990); assay type: functional, cell-based
[27] = cytotoxicity toward NIH3T3 fibroblasts, dose response, counter-screen, cell-based, ATP luminescence, mouse fibroblasts (AID 2010); assay type: functional;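 further: cells exposed to compound for about 90 hours before reading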
[28] = inhibitors of intracellular T. cruzi replication, confirmation, NIH3T3 host cells, beta-gal luminescence (AID 2044); assay type: functional, cell-based;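 further: intracellular parasites grown in NIH/3T3 mouse fibroblasts as host cells; luminescent beta-galactosidase reporter signal from transgenic T. cruzi replicating inside host cells; inhibitors lower the luminescence signal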
[29] = molecular target: T5, Calpain-2 catalytic subunit (Sus scrofa, UniProt P43367); assay: pig calpain II inhibitor potency, dose response, biochemical, fluorogenic peptide substrate (AID 1420); assay type: functional
T5 sequence (P43367 whole entry): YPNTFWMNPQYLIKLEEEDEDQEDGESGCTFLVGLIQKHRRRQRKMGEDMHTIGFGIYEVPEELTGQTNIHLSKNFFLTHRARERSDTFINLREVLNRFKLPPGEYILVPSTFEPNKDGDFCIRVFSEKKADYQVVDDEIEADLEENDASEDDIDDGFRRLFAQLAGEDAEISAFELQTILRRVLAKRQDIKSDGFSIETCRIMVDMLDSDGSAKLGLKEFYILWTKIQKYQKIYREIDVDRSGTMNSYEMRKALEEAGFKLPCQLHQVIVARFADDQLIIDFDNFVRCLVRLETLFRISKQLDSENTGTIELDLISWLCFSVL

[30] = C. albicans growth with fluconazole, confirmation, fluorescence, retest (AID 2467); assay type: functional, cell-based
[31] = system: Streptococcus; assay: Group A Streptococcus viability loss, dose response, counter-screen for streptokinase expression inhibitor project, luminescence, BacTiterGlo (AID 1915); assay type: functional, organism-based;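 further: potency for reduction of bacterial viability or growth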
[32] = system: BJ; assay: cytotoxicity toward BJ-TERT-LT-ST fibroblasts, dose response, cell-based, RAS-independent, luminescence (AID 1935); assay type: functional; details: Homo sapiens;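 further: BJ fibroblasts immortalized with TERT plus LT and ST oncogenes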

With `FC(F)(F)c1cc(CCN2CCNC[C@@H]2CC2CCCCC2)cc(C(F)(F)F)c1` the AC50 [1] was 11.2 µM (active), the AC50 [2] was 7.47 µM (active) and the AC50 [3] was 7.14 µM (active). The IC50 [4] was 62.5 µM (active), the AC50 [5] was 7.74 µM (active) and the IC50 [6] was 9.68 µM (active). The IC50 [7] was > 20 µM (inactive), the AC50 [8] was 11.5 µM (active) and the AC50 [9] was 23.8 µM (active). For the same molecule, the EC50 [10] was > 54.7 µM (inactive), the EC50 [11] was 17.6 µM (inactive) and the EC50 [12] was > 54.7 µM (inactive). The AC50 [13] was 17.6 µM (active) and the AC50 [14] was 8.59 µM (active).
With `Oc1ccccc1N=Nc1ccccc1O` the EC50 [15] was 0.626 µM (active), the EC50 [16] was > 120 µM (not active) and the EC50 [17] was > 160 µM (inactive). For the same molecule, the EC50 [18] was 0.13 µM (active), the EC50 [19] was 2.06 µM (active) and the IC50 [20] was > 122 µM (inactive). The IC50 [21] was 22.1 µM (active), the EC50 [22] was 12.7 µM (active) and the EC50 [23] was 1.15 µM (active). The EC50 [24] was 2.3 µM (inconclusive), the EC50 [25] was 0.6 µM (active) and the EC50 [26] was 14.7 µM (active). For the same molecule, the EC50 [27] was 12.1 µM (active), the EC50 [28] was 1.3 µM (active) and the IC50 [29] was > 50 µM (not active). The EC50 [30] was 1.38 µM (active), the EC50 [31] was 8.99 µM (active) and the EC50 [32] was 3.31 µM (inconclusive).
